Where a name gives a salt, the structure may show the parent alone. Read-outs that look alike come from different tables or passages of the source.
Experiments:
alpha-2-receptor = assay: Radioligand binding, alpha-2 adrenoceptor, rat cerebral cortices, [3H]-rauwolscine; settings: ratio Ki alpha-1/Ki alpha-2
Procedure: (§1) The compounds were assessed for alpha-adrenergic receptor subtype selectivity by use of radioligand binding techniques as described previously (DeBernardis et.al. J. Med. Chem. 28, 1398 (1985)).

serotonin uptake = assay: Biogenic amine uptake inhibition in rat brain synaptosomes, serotonin; assay type: biochemical, rat (Sprague-Dawley); settings: tritiated amine 0.1 μM, 37° C., 4 minutes
Procedure: (§2) The ability of compounds of the invention to inhibit biogenic amine uptake is determined as outlined below.
(§3) Sprague-Dawley derived rats of either sex, weighing about 180-250 g, were killed by decapitation. The brains were immediately removed, placed on a glass plate chilled over crushed ice and dissected according to a modification of the method of Glowinski and Iversen (J. Neurochem. 13, 655-669, 1966). First, the rhombencephalon was separated by transverse section and discarded. The remaining tissue was bisected by a midline sagittal cut. The hypothalamus was removed using the anterior and posterior reference points, respectively. The hippocampus was peeled away and discarded and the striata were exposed and removed. Frontal cortical tissue was dissected from remaining brain structures. […] The tissues were placed in a cold Potter-Elvehjem glass homogenizer with 5 (cortex) or 10 (hypothalamus) and 20 (striatum) volumes of ice-cold 0.32M sucrose, pH 7.0 and homogenized by hand. The homogenate was centrifuged at 2500 rpm in a GLC centrifuge for 10 minutes in a refrigerated room. The supernatant fraction containing the synaptosomes was decanted, mixed thoroughly, and kept on crushed ice for use in the uptake studies.

norepinephrine uptake = assay: Biogenic amine uptake inhibition in rat brain synaptosomes, norepinephrine; assay type: biochemical, rat (Sprague-Dawley); settings: tritiated amine 0.1 μM, 37° C., 4 minutes; read-out: Biogenic Amine Uptake Inhibition IC50 Norephinephrine
Procedure: as §2, §3

dopamine uptake = assay: Biogenic amine uptake inhibition in rat brain synaptosomes, dopamine; assay type: biochemical, rat (Sprague-Dawley); settings: tritiated amine 0.1 μM, 37° C., 4 minutes
Procedure: as §2, §3

[1] = test system: intraocular pressure of rabbits; assay: Effects of topically administered compounds on intraocular pressure of rabbits; assay type: in vivo, rabbit (New Zealand albino); settings: 0.3% soln., topical to cornea
Procedure: The effect on intraocular pressure of the compounds of the invention can be determined in rabbits by using the following method.
a. Method The intraocular pressure lowering effects of the compounds were evaluated in unanesthetized, male albino, New Zealand rabbits weighing 2.0 to 2.5 kg. The rabbits were placed in Plas Labs restraining devices for the duration of the experiment. Intraocular pressure (IOP) was measured with a Bausch and Lomb Applamatic Tonometer and recorded as the average of three individual readings at each time point in the experiment. Baseline IOP values were established at three time points separated by 30 minutes. Each compound or vehicle was applied topically to the cornea in a volume of 0.1 ml to one eye in each six rabbits. The contralateral eye was untreated. IOP was recorded at 5, 15, 30, 60 and 90 minutes after dosing.

alpha-1-receptor = biological target: T1, alpha-1-receptor (Rattus norvegicus, UniProt P15823); assay: Radioligand binding, alpha-1 adrenoceptor, rat liver homogenates, [3H]-prazosin
T1 construct: rat liver homogenates; from tissue; host or cells: rat liver homogenate
T1 sequence (P15823 1-515): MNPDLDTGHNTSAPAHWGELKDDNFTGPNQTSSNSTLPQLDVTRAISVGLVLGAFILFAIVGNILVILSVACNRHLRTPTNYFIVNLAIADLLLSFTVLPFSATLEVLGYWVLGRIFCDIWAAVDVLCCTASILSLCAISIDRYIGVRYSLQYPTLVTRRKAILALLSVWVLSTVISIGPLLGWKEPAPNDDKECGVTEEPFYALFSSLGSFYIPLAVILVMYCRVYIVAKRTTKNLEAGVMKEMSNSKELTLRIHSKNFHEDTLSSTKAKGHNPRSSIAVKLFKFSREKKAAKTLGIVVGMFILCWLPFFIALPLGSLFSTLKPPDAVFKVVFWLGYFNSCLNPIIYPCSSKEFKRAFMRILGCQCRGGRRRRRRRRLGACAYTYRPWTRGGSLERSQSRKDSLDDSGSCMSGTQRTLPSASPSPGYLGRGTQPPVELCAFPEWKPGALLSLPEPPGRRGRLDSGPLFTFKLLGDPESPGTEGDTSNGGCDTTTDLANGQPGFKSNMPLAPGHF
Procedure: as §1

[2] = rat liver homogenates, [3H]-prazosin, read-out: Ki alpha-1

Compound	alpha-2 - Selectivity Ki alpha-1/Ki alpha-2 (alpha-2-receptor)	Ki (alpha-1-receptor; [2]) [nM]	further results
5-Methoxy-1-(3-phenylpyrrolidino-1-methyl) indane hydrochloride [Example 152]	11	–	–
8-Fluoro-5,6-methylenedioxy-1-(3-phenylpyrrolidino-1-methyl) tetralin hydrochloride [Example 160]	–	–	IC50 (serotonin uptake): 1840 nM; IC50 (norepinephrine uptake): 991 nM; IC50 (dopamine uptake): 2930 nM
CN(CCc1ccccc1)CC1CCCc2cc(O)ccc21 (stereo not shown) [11 (HCl salt)]	–	–	% Change in Intraocular Pressure After Treatment Compared to Untreated Eye in Rabbits ([1]; 5 minutes): -38%; % Change in Intraocular Pressure After Treatment Compared to Untreated Eye in Rabbits ([1]; 15 minutes): -55%; % Change in Intraocular Pressure After Treatment Compared to Untreated Eye in Rabbits ([1]; 30 minutes): -54%; % Change in Intraocular Pressure After Treatment Compared to Untreated Eye in Rabbits ([1]; 60 minutes): -44%; % Change in Intraocular Pressure After Treatment Compared to Untreated Eye in Rabbits ([1]; 90 minutes): -20%
COc1ccc2c(c1)CCCC2CN(C)CCC1CCCS1 (stereo not shown) [Example 6h, 1-((N-methylamino)methyl-N-(2-(2-tetrahydrothienyl)ethyl)) 6-methoxy tetralin hydrochloride]	430	1510	–
CN(CCc1cccc(F)c1)CC1CCCc2cc(O)ccc21 (stereo not shown) [Example 10, 1-((N-Methylamino)methyl-N-(2-(m-fluorophenyl)ethyl))-6-hydroxy tetralin hydrochloride]	–	–	% Change in Intraocular Pressure After Treatment Compared to Untreated Eye in Rabbits ([1]; 5 minutes): -45%; % Change in Intraocular Pressure After Treatment Compared to Untreated Eye in Rabbits ([1]; 15 minutes): -31%; % Change in Intraocular Pressure After Treatment Compared to Untreated Eye in Rabbits ([1]; 30 minutes): -25%; % Change in Intraocular Pressure After Treatment Compared to Untreated Eye in Rabbits ([1]; 60 minutes): -36%; % Change in Intraocular Pressure After Treatment Compared to Untreated Eye in Rabbits ([1]; 90 minutes): -23%
COc1ccc(C)c2c1CCCC2CN(C)CCc1cccs1 (stereo not shown) [Example 36, 1-((N Methylamino)methyl-N-(2-(2-thienyl)ethyl))-5-methoxy-8-methyl tetralin hydrochloride]	95	655	–
CCOc1ccc2c(c1)CCCC2CN(C)CCc1cccc(N)c1 (stereo not shown) [Example 69, 1-((N-Methylamino)methyl-N-(2-(m-aminophenyl)ethyl))6-ethoxy tetralin dihydrochloride]	98	1270	–
COc1ccc2c(c1)CCCC2CN1CCC(c2ccccc2)C1 (stereo not shown) [Example 121, 6-Methoxy-1-(3-phenylpyrrolidino-1-methyl) tetralin hydrochloride]	95	95	–
CN(CCc1cccs1)CC1CCCc2c(Cl)cccc21 (stereo not shown) [Example 129, 1-((N-Methylamino)methyl-N-(2-(2-thieny)ethyl))5-chloro tetralin hydrochloride]	55	198	–
c1ccc(C2CCN(CC3CCCc4c3ccc3c4OCO3)C2)cc1 (stereo not shown) [Example 143a, 5,6-Methylenedioxy-1-(3-phenylpyrrolidino-1-methyl) tetralin methanesulfonate]	43	51	–
COc1cccc2c1CCCC2CN1CCC(c2cccs2)C1 (stereo not shown) [Example 146, hydrochloride]	35	170	–
Fc1ccc2c(c1)CCCC2CN1CCC(c2ccccc2)C1 (stereo not shown) [Example 148, 6-Fluoro-1-(3-phenylpyrrolidino-1-methyl) tetralin methanesulfonate]	19	126	–
Fc1ccc2c(c1)CCCC2CN1CCC(c2cccs2)C1 (stereo not shown) [Example 149, 6-Fluoro-1-(3-(2-thienyl)pyrrolidino-1-methyl) tetralin methanesulfonate]	45	–	–
COc1ccc2c(c1)CCC2CN1CCC(c2cccs2)C1 (stereo not shown) [Example 151, 5-Methoxy-1-(3-(2-thienyl)pyrrolidino-1-methyl) indane hydrochloride]	71	177	–
COc1ccc2c(c1)CCC2CN1CCC(c2cccc(F)c2)C1 (stereo not shown) [Example 153, 5-Methoxy-1-(3-(m-fluorophenyl)pyrrolidino-1-methyl) indane hydrochloride]	7	58	–
Nc1ccc2c(c1)CCCC2CN1CCC(c2ccccc2)C1 (stereo not shown) [Example 156, 6-Amino-1-(3-phenylpyrrolidino-1-methyl) tetralin dihydrochloride]	21	125	–
CCN(CCc1cccc(F)c1)CC1CCCc2c1ccc1c2OCO1 (stereo not shown) [Example 165, 1-((N-Ethylamino)methyl-N-(2-m-fluorophenethyl))-5,6-methylenedioxy tetralin hydrochloride]	–	462	–
CN(CCc1cccc(F)c1)CC1CCCc2c1ccc1c2OCO1 (stereo not shown) [Example 166, 1-((N-Methylamino)methyl-N (2-m-fluorophenethyl))-5,6-methylenedioxy tetralin methanesulfonate]	–	603	–
CN(CCc1cccc(F)c1)CC1CCCc2c1ccc1c2OCCO1 (stereo not shown) [Example 167, 1-((N-Methylamino)methyl-N-(2-m-fluorophenethyl))-5,6-ethylenedioxy tetralin methanesulfonate]	85	357	–
CCN(CCc1cccs1)CC1CCCc2c1ccc1c2OCCO1 (stereo not shown) [Example 168, 1-((N Ethylamino)methyl-N-(2-(2-thienyl)ethyl))-5,6-ethylenedioxy tetralin hydrochloride]	–	823	–
Fc1ccccc1C1CCN(CC2CCCc3c2ccc2c3OCO2)C1 (stereo not shown) [Example 176a, 5,6-Methylenedioxy-1-(3-(o-fluorophenyl)pyrrolidino-1-methyl) tetralin methanesulfonate]	–	79	–
CN(c1ccc2c(c1)CCCC2CN1CCC(c2ccccc2)C1)S(C)(=O)=O (stereo not shown) [Example 193, 6-(N-methylmethylsulfonamido)-1-(3-phenylpyrrolidino-1methyl)tetralin hydrochloride]	93	121	–
COC(=O)[C@H]1[C@H]2C[C@H]3c4[nH]c5ccccc5c4CCN3C[C@H]2CC[C@@H]1O [Rauwolscine, reference compound]	–	–	Ki (alpha-1-receptor): 392 nM
